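Assay format: 96-well plates, 48-hour exposure. Abbreviation: GI50, concentration required for 50% inhibition of growth.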 Activity calls are given as the source filed them. Rule as the data show it: active = GI50 up to about 1.1 µM and inactive = higher.
Legend:
Test in all cases: growth of human tumour cells (NCI), 48 h
CCRF-CEM = test system: CCRF-CEM
NCI-H226 = test system: NCI-H226
RXF 393 = test system: RXF 393
M14 = test system: M14
SK-MEL-2 = test system: SK-MEL-2
NCI-H522 = test system: NCI-H522
HT-29 = test system: HT-29
HOP-62 = test system: HOP-62
HL-60 = test system: HL-60
COLO 205 = test system: COLO 205
OVCAR-5 = test system: OVCAR-5
K562 = test system: K562
MOLT-4 = test system: MOLT-4
786-0 = test system: 786-0
BT-549 = test system: BT-549
MDA-MB-435 = test system: MDA-MB-435
NCI/ADR-RES = test system: NCI/ADR-RES
ACHN = test system: ACHN
MDA-MB-231 = test system: MDA-MB-231
IGROV-1 = test system: IGROV-1
SF-268 = test system: SF-268
MCF7 = test system: MCF7
MDA-N = test system: MDA-N
SW-620 = test system: SW-620
PC-3 = test system: PC-3
NCI-H460 = test system: NCI-H460
SF-539 = test system: SF-539
NCI-H23 = test system: NCI-H23
LOX IMVI = test system: LOX IMVI
SF-295 = test system: SF-295
SK-OV-3 = test system: SK-OV-3
U-251 = test system: U-251
T47D = test system: T47D
Hs-578T = test system: Hs-578T
A498 = test system: A498
HOP-92 = test system: HOP-92
A549 = test system: A549
EKVX = test system: EKVX
UACC-62 = test system: UACC-62
TK-10 = test system: TK-10
OVCAR-4 = test system: OVCAR-4
RPMI-8226 = test system: RPMI-8226
HCT-116 = test system: HCT-116
SR = test system: SR
SK-MEL-5 = test system: SK-MEL-5
HCC 2998 = test system: HCC 2998
HCT-15 = test system: HCT-15
DU-145 = test system: DU-145
SK-MEL-28 = test system: SK-MEL-28
UO-31 = test system: UO-31
Malme-3M = test system: Malme-3M
UACC-257 = test system: UACC-257
KM12 = test system: KM12
OVCAR-3 = test system: OVCAR-3
SN12C = test system: SN12C
OVCAR-8 = test system: OVCAR-8
SNB-75 = test system: SNB-75
SNB-19 = test system: SNB-19
CAKI-1 = test system: CAKI-1

O=C(O)c1ccc2c(c1)CC1(C2)Cc2cc3c(cc2C1=O)CCC3 (stereo unspecified)
GI50 (CCRF-CEM): > 100 µM (inactive)
GI50 (NCI-H226): > 100 µM (inactive)
GI50 (RXF 393): 73.5 µM (inactive)
GI50 (M14): > 100 µM (inactive)
GI50 (SK-MEL-2): > 100 µM (inactive)
GI50 (NCI-H522): > 100 µM (inactive)
GI50 (HT-29): > 100 µM (inactive)
GI50 (HOP-62): > 100 µM (inactive)
GI50 (HL-60): > 100 µM (inactive)
GI50 (COLO 205): > 100 µM (inactive)
GI50 (OVCAR-5): > 100 µM (inactive)
GI50 (K562): > 100 µM (inactive)
GI50 (MOLT-4): > 100 µM (inactive)
GI50 (786-0): > 100 µM (inactive)
GI50 (BT-549): > 100 µM (inactive)
GI50 (MDA-MB-435): > 100 µM (inactive)
GI50 (NCI/ADR-RES): > 100 µM (inactive)
GI50 (ACHN): > 100 µM (inactive)
GI50 (MDA-MB-231): > 100 µM (inactive)
GI50 (IGROV-1): > 100 µM (inactive)
GI50 (SF-268): 46.8 µM (inactive)
GI50 (MCF7): > 100 µM (inactive)
GI50 (MDA-N): > 100 µM (inactive)
GI50 (SW-620): > 100 µM (inactive)
GI50 (PC-3): > 100 µM (inactive)
GI50 (NCI-H460): > 100 µM (inactive)
GI50 (SF-539): > 100 µM (inactive)
GI50 (NCI-H23): > 100 µM (inactive)
GI50 (LOX IMVI): > 100 µM (inactive)
GI50 (SF-295): 93.3 µM (inactive)
GI50 (SK-OV-3): > 100 µM (inactive)
GI50 (U-251): > 100 µM (inactive)
GI50 (T47D): 34.4 µM (inactive)
GI50 (Hs-578T): > 100 µM (inactive)
GI50 (A498): 19.5 µM (inactive)
GI50 (HOP-92): 69 µM (inactive)
GI50 (A549): 69 µM (inactive)
GI50 (EKVX): > 100 µM (inactive)
GI50 (UACC-62): > 100 µM (inactive)
GI50 (TK-10): > 100 µM (inactive)
GI50 (OVCAR-4): > 100 µM (inactive)
GI50 (RPMI-8226): > 100 µM (inactive)
GI50 (HCT-116): > 100 µM (inactive)
GI50 (SR): > 100 µM (inactive)
GI50 (SK-MEL-5): 93.8 µM (inactive)
GI50 (HCC 2998): > 100 µM (inactive)
GI50 (HCT-15): 79.6 µM
GI50 (DU-145): > 100 µM (inactive)
GI50 (SK-MEL-28): > 100 µM (inactive)
GI50 (UO-31): 85.1 µM (inactive)
GI50 (Malme-3M): > 100 µM (inactive)
GI50 (UACC-257): > 100 µM (inactive)
GI50 (KM12): > 100 µM (inactive)
GI50 (OVCAR-3): > 100 µM (inactive)
GI50 (SN12C): > 100 µM (inactive)
GI50 (OVCAR-8): 97.9 µM (inactive)
GI50 (SNB-75): 56 µM (inactive)
GI50 (SNB-19): > 100 µM (inactive)

CCOC(=O)NC(Nc1ccc(F)cc1F)(C(F)(F)F)C(F)(F)F
GI50 (CCRF-CEM): > 100 µM (inactive)
GI50 (NCI-H226): > 100 µM (inactive)
GI50 (RXF 393): > 100 µM (inactive)
GI50 (M14): > 100 µM (inactive)
GI50 (SK-MEL-2): > 100 µM (inactive)
GI50 (NCI-H522): > 100 µM (inactive)
GI50 (HT-29): > 100 µM (inactive)
GI50 (HOP-62): > 100 µM (inactive)
GI50 (HL-60): > 100 µM (inactive)
GI50 (COLO 205): > 100 µM (inactive)
GI50 (OVCAR-5): > 100 µM (inactive)
GI50 (K562): > 100 µM (inactive)
GI50 (MOLT-4): > 100 µM (inactive)
GI50 (786-0): > 100 µM (inactive)
GI50 (BT-549): > 100 µM (inactive)
GI50 (MDA-MB-435): > 100 µM (inactive)
GI50 (NCI/ADR-RES): > 100 µM (inactive)
GI50 (ACHN): > 100 µM (inactive)
GI50 (MDA-MB-231): > 100 µM (inactive)
GI50 (IGROV-1): > 100 µM (inactive)
GI50 (SF-268): > 100 µM (inactive)
GI50 (MCF7): > 100 µM (inactive)
GI50 (MDA-N): > 100 µM (inactive)
GI50 (SW-620): > 100 µM (inactive)
GI50 (PC-3): > 100 µM (inactive)
GI50 (NCI-H460): > 100 µM (inactive)
GI50 (SF-539): > 100 µM (inactive)
GI50 (NCI-H23): > 100 µM (inactive)
GI50 (LOX IMVI): > 100 µM (inactive)
GI50 (SF-295): > 100 µM (inactive)
GI50 (SK-OV-3): > 100 µM (inactive)
GI50 (U-251): > 100 µM (inactive)
GI50 (T47D): > 100 µM (inactive)
GI50 (CAKI-1): > 100 µM (inactive)
GI50 (Hs-578T): > 100 µM (inactive)
GI50 (A498): > 100 µM (inactive)
GI50 (HOP-92): > 100 µM (inactive)
GI50 (A549): > 100 µM (inactive)
GI50 (EKVX): > 100 µM (inactive)
GI50 (UACC-62): > 100 µM (inactive)
GI50 (TK-10): > 100 µM (inactive)
GI50 (RPMI-8226): > 100 µM (inactive)
GI50 (HCT-116): > 100 µM (inactive)
GI50 (SR): > 100 µM (inactive)
GI50 (SK-MEL-5): > 100 µM (inactive)
GI50 (HCC 2998): > 100 µM (inactive)
GI50 (HCT-15): > 100 µM
GI50 (DU-145): > 100 µM (inactive)
GI50 (SK-MEL-28): > 100 µM (inactive)
GI50 (UO-31): > 100 µM (inactive)
GI50 (Malme-3M): > 100 µM (inactive)
GI50 (UACC-257): > 100 µM (inactive)
GI50 (KM12): > 100 µM (inactive)
GI50 (OVCAR-3): > 100 µM (inactive)
GI50 (SN12C): > 100 µM (inactive)
GI50 (OVCAR-8): > 100 µM (inactive)
GI50 (SNB-75): > 100 µM (inactive)
GI50 (SNB-19): > 100 µM (inactive)

From ChEMBL document CHEMBL1201862, “PubChem BioAssay data set” (2004)
